Where a SMILES comes first, the peptide text is derived from it. Bridges are numbered along the chain shown (N, C = ends).
Assays:
rNaV1.8 = rNaV1.8 (Rattus norvegicus, UniProt Q62968); experiment: Two-electrode voltage-clamp on Xenopus laevis oocytes expressing NaV1.8
mNaV1.6 = mNaV1.6 (Mus musculus, UniProt Q9WTU3); experiment: Two-electrode voltage-clamp on Xenopus laevis oocytes expressing NaV1.6
rNaV1.4 = rNaV1.4 (Rattus norvegicus, UniProt P15390); experiment: Two-electrode voltage-clamp on Xenopus laevis oocytes expressing NaV1.4
hNaV1.1 = hNaV1.1 (Homo sapiens, UniProt P35498); experiment: Two-electrode voltage-clamp on Xenopus laevis oocytes expressing NaV1.1
hNaV1.5 = hNaV1.5 (Homo sapiens, UniProt Q14524); experiment: Two-electrode voltage-clamp on Xenopus laevis oocytes expressing NaV1.5
[1] = tested on: NaV1.2, NaV1.4, NaV1.5 and NaV1.6; conditions: 100 μM
rNaV1.7 = rNaV1.7 (Rattus norvegicus, UniProt O08562); experiment: Two-electrode voltage-clamp on Xenopus laevis oocytes expressing NaV1.7
rNaV1.3 = rNaV1.3 (Rattus norvegicus, UniProt P08104); experiment: Two-electrode voltage-clamp on Xenopus laevis oocytes expressing NaV1.3
rNaV1.2 = rNaV1.2 (Rattus norvegicus, UniProt P04775); experiment: Two-electrode voltage-clamp on Xenopus laevis oocytes expressing NaV1.2
inflammatory pain models = conditions: in vivo; cited from earlier work

rNaV1.4, sequence (P15390 whole entry): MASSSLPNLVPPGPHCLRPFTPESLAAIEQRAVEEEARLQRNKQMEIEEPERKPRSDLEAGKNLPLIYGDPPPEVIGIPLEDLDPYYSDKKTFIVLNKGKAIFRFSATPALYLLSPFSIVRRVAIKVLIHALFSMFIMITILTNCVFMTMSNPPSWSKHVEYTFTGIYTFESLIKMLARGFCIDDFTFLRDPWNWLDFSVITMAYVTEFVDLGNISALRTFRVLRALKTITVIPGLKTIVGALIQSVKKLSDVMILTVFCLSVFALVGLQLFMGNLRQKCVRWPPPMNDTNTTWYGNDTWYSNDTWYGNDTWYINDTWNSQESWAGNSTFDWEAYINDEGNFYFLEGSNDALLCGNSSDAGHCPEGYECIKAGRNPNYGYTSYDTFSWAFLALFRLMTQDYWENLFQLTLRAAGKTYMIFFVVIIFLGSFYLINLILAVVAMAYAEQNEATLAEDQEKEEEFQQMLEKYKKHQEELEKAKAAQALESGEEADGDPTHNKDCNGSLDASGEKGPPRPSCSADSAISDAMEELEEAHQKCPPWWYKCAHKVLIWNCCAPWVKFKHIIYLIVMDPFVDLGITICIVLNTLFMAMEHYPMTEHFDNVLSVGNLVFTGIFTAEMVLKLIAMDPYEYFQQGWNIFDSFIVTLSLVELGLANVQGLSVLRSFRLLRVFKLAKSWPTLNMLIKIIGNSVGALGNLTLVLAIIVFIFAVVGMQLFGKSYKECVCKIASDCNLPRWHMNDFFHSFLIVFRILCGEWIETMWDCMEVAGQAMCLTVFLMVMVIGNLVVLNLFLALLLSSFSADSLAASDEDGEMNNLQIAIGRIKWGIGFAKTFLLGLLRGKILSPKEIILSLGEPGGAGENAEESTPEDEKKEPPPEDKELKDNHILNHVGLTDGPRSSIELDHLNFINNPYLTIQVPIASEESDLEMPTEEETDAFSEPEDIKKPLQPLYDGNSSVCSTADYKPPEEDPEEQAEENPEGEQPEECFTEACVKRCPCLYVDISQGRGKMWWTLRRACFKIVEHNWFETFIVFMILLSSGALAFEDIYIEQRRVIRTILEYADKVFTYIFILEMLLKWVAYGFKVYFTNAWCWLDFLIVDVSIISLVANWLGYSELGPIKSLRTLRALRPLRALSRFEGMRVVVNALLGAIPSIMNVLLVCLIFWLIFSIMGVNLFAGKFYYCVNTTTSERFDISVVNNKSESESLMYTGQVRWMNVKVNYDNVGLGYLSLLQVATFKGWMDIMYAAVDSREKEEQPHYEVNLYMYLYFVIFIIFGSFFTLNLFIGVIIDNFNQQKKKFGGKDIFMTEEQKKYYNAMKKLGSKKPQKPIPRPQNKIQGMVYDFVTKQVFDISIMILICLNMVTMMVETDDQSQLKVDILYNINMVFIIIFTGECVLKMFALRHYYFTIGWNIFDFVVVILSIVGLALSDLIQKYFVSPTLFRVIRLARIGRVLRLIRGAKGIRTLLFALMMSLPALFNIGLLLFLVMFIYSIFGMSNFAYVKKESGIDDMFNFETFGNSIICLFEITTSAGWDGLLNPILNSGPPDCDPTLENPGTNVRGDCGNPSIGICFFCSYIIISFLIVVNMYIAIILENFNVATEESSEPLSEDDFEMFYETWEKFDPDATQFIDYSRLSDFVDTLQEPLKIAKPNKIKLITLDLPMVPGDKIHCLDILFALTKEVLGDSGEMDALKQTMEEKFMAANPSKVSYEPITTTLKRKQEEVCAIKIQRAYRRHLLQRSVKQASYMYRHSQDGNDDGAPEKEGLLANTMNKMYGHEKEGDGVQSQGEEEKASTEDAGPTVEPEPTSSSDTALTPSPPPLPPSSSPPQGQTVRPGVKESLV
rNaV1.4, sequence (Q00954 19-218, further chain): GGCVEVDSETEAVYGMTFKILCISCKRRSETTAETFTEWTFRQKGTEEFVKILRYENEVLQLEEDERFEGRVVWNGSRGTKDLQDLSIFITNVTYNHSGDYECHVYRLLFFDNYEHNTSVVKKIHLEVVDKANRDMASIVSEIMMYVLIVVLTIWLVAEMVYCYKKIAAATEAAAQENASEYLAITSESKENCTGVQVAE
rNaV1.8, sequence (Q62968 whole entry): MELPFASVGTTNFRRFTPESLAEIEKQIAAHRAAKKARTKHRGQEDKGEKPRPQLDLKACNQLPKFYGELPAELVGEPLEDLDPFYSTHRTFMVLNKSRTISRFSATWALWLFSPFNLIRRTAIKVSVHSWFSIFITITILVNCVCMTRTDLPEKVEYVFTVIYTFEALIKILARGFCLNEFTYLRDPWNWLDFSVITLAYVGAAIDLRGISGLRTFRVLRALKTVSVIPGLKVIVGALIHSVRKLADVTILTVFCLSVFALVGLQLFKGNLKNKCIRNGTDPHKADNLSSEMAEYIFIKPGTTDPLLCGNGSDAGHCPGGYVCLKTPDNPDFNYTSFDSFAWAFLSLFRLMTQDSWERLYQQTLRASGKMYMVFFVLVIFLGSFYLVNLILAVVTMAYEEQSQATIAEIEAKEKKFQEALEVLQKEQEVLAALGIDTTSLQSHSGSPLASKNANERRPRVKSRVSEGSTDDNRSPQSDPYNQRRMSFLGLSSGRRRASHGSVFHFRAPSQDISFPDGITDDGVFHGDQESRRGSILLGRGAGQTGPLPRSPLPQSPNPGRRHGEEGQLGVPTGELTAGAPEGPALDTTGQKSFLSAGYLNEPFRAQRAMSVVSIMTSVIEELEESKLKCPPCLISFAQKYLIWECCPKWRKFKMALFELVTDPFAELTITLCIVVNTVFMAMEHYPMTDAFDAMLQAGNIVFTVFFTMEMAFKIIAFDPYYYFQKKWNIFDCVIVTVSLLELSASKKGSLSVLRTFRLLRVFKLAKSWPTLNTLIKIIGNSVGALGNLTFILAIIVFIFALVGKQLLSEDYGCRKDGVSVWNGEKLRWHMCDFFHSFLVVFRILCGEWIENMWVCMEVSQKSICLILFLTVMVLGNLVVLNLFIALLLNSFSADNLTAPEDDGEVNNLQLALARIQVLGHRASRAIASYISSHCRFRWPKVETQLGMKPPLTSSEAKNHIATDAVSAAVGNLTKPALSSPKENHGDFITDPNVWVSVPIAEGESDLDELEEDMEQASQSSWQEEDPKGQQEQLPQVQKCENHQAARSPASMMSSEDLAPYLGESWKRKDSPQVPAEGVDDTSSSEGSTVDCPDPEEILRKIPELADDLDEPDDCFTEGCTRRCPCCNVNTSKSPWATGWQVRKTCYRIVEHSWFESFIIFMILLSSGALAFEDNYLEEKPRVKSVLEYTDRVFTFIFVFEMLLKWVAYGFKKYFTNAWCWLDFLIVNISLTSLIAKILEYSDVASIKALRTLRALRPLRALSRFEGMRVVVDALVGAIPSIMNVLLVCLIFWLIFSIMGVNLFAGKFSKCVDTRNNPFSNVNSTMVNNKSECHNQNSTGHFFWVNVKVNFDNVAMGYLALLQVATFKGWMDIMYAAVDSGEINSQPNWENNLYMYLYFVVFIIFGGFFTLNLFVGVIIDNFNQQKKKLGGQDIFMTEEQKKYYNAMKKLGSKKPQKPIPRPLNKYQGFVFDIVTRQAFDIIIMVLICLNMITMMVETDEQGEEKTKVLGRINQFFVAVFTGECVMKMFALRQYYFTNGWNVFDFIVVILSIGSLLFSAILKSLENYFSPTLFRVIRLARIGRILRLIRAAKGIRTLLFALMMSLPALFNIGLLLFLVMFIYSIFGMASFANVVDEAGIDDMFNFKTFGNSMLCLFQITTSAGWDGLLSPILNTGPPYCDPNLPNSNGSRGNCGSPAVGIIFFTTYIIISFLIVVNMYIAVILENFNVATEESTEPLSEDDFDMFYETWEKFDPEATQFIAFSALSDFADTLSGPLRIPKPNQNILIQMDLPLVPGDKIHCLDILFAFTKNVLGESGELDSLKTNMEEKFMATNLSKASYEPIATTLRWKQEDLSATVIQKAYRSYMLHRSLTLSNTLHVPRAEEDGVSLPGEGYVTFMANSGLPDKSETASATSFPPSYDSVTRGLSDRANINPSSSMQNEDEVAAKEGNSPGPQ

Compound	IC50 (rNaV1.8)	inhibition at 100 µM (rNaV1.8; read-out: Maximum % inhibition NaV1.8)	IC50 (mNaV1.6)	inhibition at 100 µM (mNaV1.6; read-out: Maximum % inhibition NaV1.6, peptide at 100 μM)	IC50 (rNaV1.4)	inhibition at 100 µM (rNaV1.4; read-out: Maximum % inhibition NaV1.4, peptide at 100 μM)	IC50 (hNaV1.1)	IC50 (hNaV1.5)	inhibition at 100 µM (hNaV1.5; read-out: Maximum % inhibition NaV1.5)	% inhibition, range across NaV1.2, NaV1.4, NaV1.5 and NaV1.6 [1]	IC50 (rNaV1.7)	IC50 (rNaV1.3)	IC50 (rNaV1.2)	inhibition at 100 µM (rNaV1.2; read-out: Maximum % inhibition NaV1.2, peptide at 100 μM)	analgesic activity in inflammatory pain models (inflammatory pain models)
C[C@@H]1NC(=O)[C@H](Cc2c[nH]c3ccccc23)NC(=O)[C@H](CCCNC(=N)N)NC(=O)[C@H](CCCNC(=N)N)NC(=O)[C@@H](N)CSSC[C@@H](C(N)=O)NC(=O)[C@H](CCCNC(=N)N)NC(=O)[C@H](CC(N)=O)NC(=O)[C@H](Cc2ccc(O)cc2)NC(=O)[C@H](CCCNC(=N)N)NC1=O [PnCS1[W7Y], CRRWARYNRC ^*] (H-CRRWARYNRC-NH2; disulfide 1-10)	> 100 µM	0%	0.7 ± 0.3 µM	93%	7.8 ± 3.3 µM	73%	2.2 ± 0.4 µM	11.7 ± 4.1 µM	75%	73–93%	8.2 ± 0.3 µM	4.1 ± 0.8 µM	7.4 ± 4.2 µM	76%	–
μ-Conotoxin KIIIA [μ-KIIIA]	–	–	–	–	–	–	–	–	–	–	–	–	–	–	analgesic in inflammatory pain models without motor impairment
